# According to ChEMBL document CHEMBL1201862, “PubChem BioAssay data set” (2004):
#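 Protocol summary: plate cells (96-well), add compound at 5 concentrations, incubate 48 h, interpolate endpoints linearly. GI50 marks 50% less growth.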 Active and inactive are the calls of the source. Rule as the data show it: active = GI50 up to about 1.1 µM and inactive = higher.
# How the values were obtained:
# Assay in all cases: growth of human tumour cells (NCI), 48 h
# [1] = tested on: 786-0
# [2] = tested on: A549
# [3] = tested on: ACHN
# [4] = tested on: CCRF-CEM
# [5] = tested on: COLO 205
# [6] = tested on: DU-145
# [7] = tested on: EKVX
# [8] = tested on: HCC 2998
# [9] = tested on: HCT-116
# [10] = tested on: HCT-15
# [11] = tested on: HL-60
# [12] = tested on: HOP-62
# [13] = tested on: HOP-92
# [14] = tested on: HT-29
# [15] = tested on: Hs-578T
# [16] = tested on: IGROV-1
# [17] = tested on: K562
# [18] = tested on: KM12
# [19] = tested on: M14
# [20] = tested on: MCF7
# [21] = tested on: MDA-MB-231
# [22] = tested on: MOLT-4
# [23] = tested on: Malme-3M
# [24] = tested on: NCI-H226
# [25] = tested on: NCI-H23
# [26] = tested on: NCI-H460
# [27] = tested on: NCI-H522
# [28] = tested on: NCI/ADR-RES
# [29] = tested on: OVCAR-4
# [30] = tested on: OVCAR-5
# [31] = tested on: OVCAR-8
# [32] = tested on: PC-3
# [33] = tested on: RPMI-8226
# [34] = tested on: RXF 393
# [35] = tested on: SF-268
# [36] = tested on: SF-539
# [37] = tested on: SK-MEL-28
# [38] = tested on: SK-MEL-2
# [39] = tested on: SK-MEL-5
# [40] = tested on: SK-OV-3
# [41] = tested on: SN12C
# [42] = tested on: SNB-19
# [43] = tested on: SNB-75
# [44] = tested on: SR
# [45] = tested on: SW-620
# [46] = tested on: T47D
# [47] = tested on: TK-10
# [48] = tested on: U-251
# [49] = tested on: UACC-257
# [50] = tested on: UACC-62
# [51] = tested on: UO-31
# [52] = tested on: A498
# [53] = tested on: CAKI-1
# [54] = tested on: LOX IMVI
# [55] = tested on: MDA-MB-435
# [56] = tested on: MDA-N
# [57] = tested on: OVCAR-3
# [58] = tested on: SF-295
structure (smiles),measurement,setting,value
Nc1nc(O)nc2sc3c(c12)CCCC3,GI50,[1],> 100 µM (inactive)
same,GI50,[2],84.3 µM (inactive)
same,GI50,[3],> 100 µM (inactive)
same,GI50,[4],41.3 µM (inactive)
same,GI50,[5],39.5 µM (inactive)
same,GI50,[6],> 100 µM (inactive)
same,GI50,[7],7.48 µM (inactive)
same,GI50,[8],82 µM (inactive)
same,GI50,[9],57 µM (inactive)
same,GI50,[10],> 100 µM
same,GI50,[11],88.5 µM (inactive)
same,GI50,[12],98.4 µM (inactive)
same,GI50,[13],> 100 µM (inactive)
same,GI50,[14],68.2 µM (inactive)
same,GI50,[15],23.6 µM (inactive)
same,GI50,[16],87.7 µM (inactive)
same,GI50,[17],61.4 µM (inactive)
same,GI50,[18],33.3 µM (inactive)
same,GI50,[19],41.1 µM (inactive)
same,GI50,[20],44.5 µM (inactive)
same,GI50,[21],98.4 µM (inactive)
same,GI50,[22],99.3 µM (inactive)
same,GI50,[23],37.8 µM (inactive)
same,GI50,[24],4.57 µM (inactive)
same,GI50,[25],> 100 µM (inactive)
same,GI50,[26],56.4 µM (inactive)
same,GI50,[27],46.6 µM (inactive)
same,GI50,[28],> 100 µM (inactive)
same,GI50,[29],38.5 µM (inactive)
same,GI50,[30],> 100 µM (inactive)
same,GI50,[31],> 100 µM (inactive)
same,GI50,[32],> 100 µM (inactive)
same,GI50,[33],38.5 µM (inactive)
same,GI50,[34],> 100 µM (inactive)
same,GI50,[35],90.4 µM (inactive)
same,GI50,[36],42.8 µM (inactive)
same,GI50,[37],25.2 µM (inactive)
same,GI50,[38],> 100 µM (inactive)
same,GI50,[39],> 100 µM (inactive)
same,GI50,[40],> 100 µM (inactive)
same,GI50,[41],73.3 µM (inactive)
same,GI50,[42],55.8 µM (inactive)
same,GI50,[43],19.7 µM (inactive)
same,GI50,[44],51.5 µM (inactive)
same,GI50,[45],> 100 µM (inactive)
same,GI50,[46],64.9 µM (inactive)
same,GI50,[47],92 µM (inactive)
same,GI50,[48],> 100 µM (inactive)
same,GI50,[49],63.1 µM (inactive)
same,GI50,[50],32.1 µM (inactive)
same,GI50,[51],81.7 µM (inactive)
CSC(SC)=C(C(=O)c1ccc(Cl)cc1)n1c(=O)sc2cc(Br)ccc21,GI50,[1],> 100 µM (inactive)
same,GI50,[52],> 100 µM (inactive)
same,GI50,[2],> 100 µM (inactive)
same,GI50,[3],> 100 µM (inactive)
same,GI50,[53],23.1 µM (inactive)
same,GI50,[4],69.2 µM (inactive)
same,GI50,[5],66.4 µM (inactive)
same,GI50,[6],> 100 µM (inactive)
same,GI50,[7],> 100 µM (inactive)
same,GI50,[8],> 100 µM (inactive)
same,GI50,[9],51.3 µM (inactive)
same,GI50,[10],> 100 µM
same,GI50,[11],> 100 µM (inactive)
same,GI50,[12],> 100 µM (inactive)
same,GI50,[13],31.5 µM (inactive)
same,GI50,[14],98.6 µM (inactive)
same,GI50,[15],> 100 µM (inactive)
same,GI50,[16],> 100 µM (inactive)
same,GI50,[17],36.5 µM (inactive)
same,GI50,[18],> 100 µM (inactive)
same,GI50,[54],> 100 µM (inactive)
same,GI50,[19],> 100 µM (inactive)
same,GI50,[20],> 100 µM (inactive)
same,GI50,[21],> 100 µM (inactive)
same,GI50,[55],> 100 µM (inactive)
same,GI50,[56],> 100 µM (inactive)
same,GI50,[22],18.7 µM (inactive)
same,GI50,[23],> 100 µM (inactive)
same,GI50,[24],> 100 µM (inactive)
same,GI50,[25],> 100 µM (inactive)
same,GI50,[26],> 100 µM (inactive)
same,GI50,[27],> 100 µM (inactive)
same,GI50,[28],> 100 µM (inactive)
same,GI50,[57],> 100 µM (inactive)
same,GI50,[29],50.8 µM (inactive)
same,GI50,[30],> 100 µM (inactive)
same,GI50,[31],> 100 µM (inactive)
same,GI50,[32],> 100 µM (inactive)
same,GI50,[33],> 100 µM (inactive)
same,GI50,[34],> 100 µM (inactive)
same,GI50,[35],> 100 µM (inactive)
same,GI50,[58],> 100 µM (inactive)
same,GI50,[36],> 100 µM (inactive)
same,GI50,[37],> 100 µM (inactive)
same,GI50,[38],> 100 µM (inactive)
same,GI50,[39],> 100 µM (inactive)
same,GI50,[40],> 100 µM (inactive)
same,GI50,[41],> 100 µM (inactive)
same,GI50,[42],> 100 µM (inactive)
same,GI50,[45],> 100 µM (inactive)
same,GI50,[46],> 100 µM (inactive)
same,GI50,[47],> 100 µM (inactive)
same,GI50,[48],> 100 µM (inactive)
same,GI50,[49],> 100 µM (inactive)
same,GI50,[50],> 100 µM (inactive)
same,GI50,[51],> 100 µM (inactive)
